ChEMBL document CHEMBL1134369, “Inhibition of heme detoxification processes underlies the antimalarial activity of terpene isonitrile compounds from marine sponges” (J Med Chem, 2001)

Tested on: Plasmodium falciparum
Experiment: Antiplasmodial activity against Plasmodium falciparum D6
Format: functional, organism-based

Structure (SMILES)	IC50 [nM]
[C-]#[N+][C@@]1(C)CC[C@H]2[C@H]3[C@@H]4[C@H](C[C@@H](C)[C@@](C)(N=C=O)[C@H]4CC[C@@H]31)C[C@@H]2C	9.4
CC(C)=CCC[C@@H](C)[C@H]1CC[C@](C)(N=C=S)[C@H]2CCC(C)=C[C@H]12	> 30200
[C-]#[N+][C@@]1(C)CC[C@H]2[C@@H]3[C@@H]1CC[C@@H](C)[C@]3(/C=C/C(=C)C)C[C@@H]2C	289
[C-]#[N+][C@@]1(C)CC[C@H]2[C@H]3[C@@H](C(=C)CC[C@@H]31)[C@H](CC(=C)C)C[C@@H]2C	1750
[C-]#[N+][C@@]1(C)CC[C@H]2[C@H]3[C@@H](C(=C)CC[C@@H]31)[C@@H](C=C(C)C)C[C@@H]2C	47.4
[C-]#[N+][C@]1(C)[C@H](C)C[C@@H]2C[C@H](C)[C@H]3CC[C@](C)(N=C=O)[C@H]4CC[C@H]1[C@@H]2[C@H]34	220
C=C[C@H]1C[C@H](C)[C@H]2CC[C@](C)(N=C=S)[C@H]3CCC(=C)[C@]1(O)[C@H]23	2310
[C-]#[N+][C@]1(C)[C@H](C)C[C@@H]2C[C@H](C)[C@H]3CC[C@](C)(N=C=S)[C@H]4CC[C@H]1[C@@H]2[C@H]34	126
[C-]#[N+][C@]1(C)[C@H](C)C[C@@H]2C[C@H](C)[C@H]3CC[C@](C)([N+]#[C-])[C@H]4CC[C@H]1[C@@H]2[C@H]34 [DIISOCYANOADOCIANE]	14.5

More lines, now with the values ahead:

IC50 [nM]	Structure (SMILES)
1320	[C-]#[N+][C@@]1(C)CC[C@H]2[C@H]3[C@@H](C(=C)CC[C@@H]31)[C@H](CC(C)(C)N=C=S)C[C@@H]2C
249	[C-]#[N+][C@@]1(C)CC[C@H]2[C@H]3[C@H]4C(=CC(C)(C)C[C@@H]4C[C@@H]2C)CC[C@@H]31
285	[C-]#[N+][C@@]1(C)CC[C@H]2[C@H]3[C@H]4C(=CC[C@@H]31)CC(C)(C)C[C@@H]4C[C@@H]2C
210	[C-]#[N+][C@@]1(C)CC[C@H]2[C@H]3[C@H]4[C@H](CC[C@@H]31)[C@H](C)C(C)=C[C@@H]4C[C@@H]2C
197	[C-]#[N+][C@@]1(C)CC[C@H]2[C@H]3C(=C(C)CC[C@@H]31)[C@@H](C=C(C)C)C[C@@H]2C
1020	[C-]#[N+][C@@]1(C)CC[C@H]2[C@H]3[C@@H](C(C)=CC[C@@H]31)[C@H](C=C(C)C)C[C@@H]2C
